This assay concerns the target Serine/threonine-protein phosphatase PP1-alpha catalytic subunit (Homo sapiens) (UniProt P62136). The assay can be described thus: dose-dependent PP1alpha phosphatase inhibition – biochemical, fluorescence, OMFP substrate, set 3, dose response (AID 652220). The settings on record: purified PP1alpha, OMFP dephosphorylation.

In general, IC50 refers to the concentration at which inhibition is half-maximal.

Serine/threonine-protein phosphatase PP1-alpha catalytic subunit (Homo sapiens), sequence (P62136 whole entry, looked up): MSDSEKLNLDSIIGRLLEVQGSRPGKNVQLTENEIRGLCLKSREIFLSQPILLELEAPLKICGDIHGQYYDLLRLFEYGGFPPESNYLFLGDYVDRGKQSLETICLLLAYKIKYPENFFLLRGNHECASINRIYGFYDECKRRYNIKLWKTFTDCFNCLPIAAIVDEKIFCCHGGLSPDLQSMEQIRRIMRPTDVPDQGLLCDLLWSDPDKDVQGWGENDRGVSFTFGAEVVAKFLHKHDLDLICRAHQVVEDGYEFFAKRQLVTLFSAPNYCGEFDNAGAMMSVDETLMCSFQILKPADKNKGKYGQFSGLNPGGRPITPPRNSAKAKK

As to `CN1CCN([C@H](c2ncccn2)c2ccc3cccnc3c2O)CC1`, the half-maximal inhibitory concentration (IC50) was 5.86 µM.
`CN1CCN([C@@H](c2ncccn2)c2ccc3cccnc3c2O)CC1`: the IC50 is 4.81 µM.

These data come from PubChem BioAssay AID652220 (The Scripps Research Institute Molecular Screening Center, 2013).
